According to publication PMC10511816 (The Journal of Biological Chemistry, 2023):

Legend:
[1] = target: T1, XO type enzyme (xanthine oxidase) (Bos taurus, UniProt P80457); experiment: time-dependent inhibition of uric acid production from xanthine by XO (A295); type: biochemical, bovine; details: for 50% inhibition time of uric acid production / stop time of uric acid production: pH 8.5, 25 °C
T1 construct: Bovine milk was obtained from the animal farm of the Nippon Veterinary and Life Science University; from tissue; host or cells: bovine milk
Procedure: A295 indicates the concentration of uric acid yielded by XOR. […] Uric acid production was measured at 295 nm at 25 °C.
(§1) Bovine milk was obtained from the animal farm of the Nippon Veterinary and Life Science University. […] The dehydrogenase form of the enzyme (XDH) was obtained by reacting XO immediately upon purification with 5 mM DTT at pH 8.5, 25 °C for 1 h. XO and XDH assays were carried out at 25 °C under aerobic conditions. […] A total of 500 μM β-NAD^+ was added to the same reaction solution for XDH activity. Physiological conditions such as pH 7.4 (0.1 M potassium phosphate buffer (KPB), 0.2 mM EDTA) and the addition of 50 μM β-NADH were also used. The activity was measured by following 295 nm and 340 nm on a UV-1800 or UV1900i spectrophotometer. […] In addition, the enzyme reaction solution was quenched with perchloric acid and neutralized with K2CO3, with products analyzed using HPLC as described below. Spectrophotometric data were analyzed using UV-Probe software Ver. 2.70 or LabSolutions UV-Vis Ver. […] Kinetic parameters were determined from nonlinear curve fits of raw data using GraphPad Prism 9 software.

[2] = target: T2, XOR (Bos taurus, UniProt P80457); experiment: XOR kinetics with phenazine methosulfate / cytochrome c reduction (550 nm); type: biochemical, bovine; details: for Types of inhibition / Ki: XOR; for Types of inhibition: PMS
T2 construct: Bovine milk was obtained from the animal farm of the Nippon Veterinary and Life Science University; from tissue; host or cells: bovine milk
Procedure: Therefore, phenazine methosulfate was used to induce direct, rapid reoxidation of the molybdenum center ([22], [23]).
as §1, with “used.” for “used. The activity was measured by following 295 nm and 340 nm on a UV-1800 or UV1900i spectrophotometer.”
(§2) A295 indicates the concentration of uric acid yielded by XOR. […] A295 indicates the concentration of uric acid yielded by XOR. Figure S2. The XOR inhibition mode of oxypurinol.A–G, Lineweaver-Burk plots were generated to visualize data and estimated the inhibition patterns. Data are representative of least two independent experiments. […] Figure S3. […] B, mode of inhibition of oxypurinol on the inosine degradation reaction of PNP. […] 0, 250, 375, 500, 750 and 1000 μM of oxypurinol were used. […] The rate of NAD^+ conversion to NADH was measured at A340 nm.

[3] = cited from earlier work
[4] = target: XDH (Bos taurus, UniProt P80457); experiment: initial-velocity steady-state kinetics of XDH, NAD+ as electron acceptor; type: biochemical, bovine; design: Bovine milk was obtained from the animal farm of the Nippon Veterinary and Life Science University; from tissue; host or cells: bovine milk; details: for Types of inhibition / Ki: XDH; for Types of inhibition: NAD+
Procedure: as §1, §2

[5] = xanthine 2 μM, inhibitor 2 μM, XO
[6] = xanthine 2 μM, inhibitor 10 μM, XO
[7] = xanthine 5 μM, inhibitor 2 μM, XO
[8] = xanthine 5 μM, inhibitor 10 μM, XO
[9] = xanthine 10 μM, inhibitor 2 μM, XO
[10] = xanthine 50 μM, inhibitor 2 μM, XO
[11] = xanthine 50 μM, inhibitor 10 μM, XO
[12] = xanthine 50 μM, inhibitor 50 μM, XO
[13] = as substrate of XOR, electron acceptor PMS, mean ± S.E.
[14] = as substrate of XDH, electron acceptor NAD+, 340 nm, mean ± S.E.

Chain of XDH (P80457 whole entry): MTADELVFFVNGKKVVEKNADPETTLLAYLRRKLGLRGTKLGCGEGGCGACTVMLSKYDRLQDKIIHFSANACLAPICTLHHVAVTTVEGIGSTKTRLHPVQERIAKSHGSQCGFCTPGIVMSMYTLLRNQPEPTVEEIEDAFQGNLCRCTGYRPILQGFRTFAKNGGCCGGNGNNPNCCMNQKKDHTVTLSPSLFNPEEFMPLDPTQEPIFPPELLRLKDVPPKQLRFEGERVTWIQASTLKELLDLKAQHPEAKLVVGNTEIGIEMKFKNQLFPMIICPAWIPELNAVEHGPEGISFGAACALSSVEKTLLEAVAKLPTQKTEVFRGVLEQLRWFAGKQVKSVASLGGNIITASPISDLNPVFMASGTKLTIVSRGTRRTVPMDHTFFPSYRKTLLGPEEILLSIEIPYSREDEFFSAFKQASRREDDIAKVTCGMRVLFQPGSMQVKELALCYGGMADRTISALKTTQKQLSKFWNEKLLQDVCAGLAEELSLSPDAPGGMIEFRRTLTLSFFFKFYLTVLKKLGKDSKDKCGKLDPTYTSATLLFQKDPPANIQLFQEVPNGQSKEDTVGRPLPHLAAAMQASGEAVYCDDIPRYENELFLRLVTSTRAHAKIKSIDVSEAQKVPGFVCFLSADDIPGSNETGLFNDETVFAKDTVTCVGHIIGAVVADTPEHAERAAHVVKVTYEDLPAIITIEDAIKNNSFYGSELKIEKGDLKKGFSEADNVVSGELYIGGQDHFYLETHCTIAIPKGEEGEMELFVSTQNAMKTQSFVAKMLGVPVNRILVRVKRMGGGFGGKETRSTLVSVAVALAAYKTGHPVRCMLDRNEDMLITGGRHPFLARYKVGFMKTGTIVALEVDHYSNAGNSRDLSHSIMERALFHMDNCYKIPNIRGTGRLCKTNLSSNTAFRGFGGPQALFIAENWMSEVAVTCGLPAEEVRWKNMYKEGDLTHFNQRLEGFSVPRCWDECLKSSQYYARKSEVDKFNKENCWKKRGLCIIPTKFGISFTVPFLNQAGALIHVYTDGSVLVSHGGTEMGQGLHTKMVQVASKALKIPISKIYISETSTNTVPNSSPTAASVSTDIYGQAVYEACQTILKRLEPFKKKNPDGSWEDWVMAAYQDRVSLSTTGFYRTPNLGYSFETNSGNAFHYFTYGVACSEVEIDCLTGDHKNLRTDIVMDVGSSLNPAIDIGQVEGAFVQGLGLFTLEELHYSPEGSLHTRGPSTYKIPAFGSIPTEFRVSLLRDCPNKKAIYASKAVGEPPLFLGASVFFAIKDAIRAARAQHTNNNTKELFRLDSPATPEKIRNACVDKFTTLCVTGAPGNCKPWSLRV
T1 sequence (P80457 whole entry): as above
T2 sequence (P80457 whole entry): as above

O=c1[nH]c(=O)c2c[nH]nc2[nH]1 [Oxypurinol]
mode of inhibition ([1]; 2 μM xanthine, 0.1 M KPB pH 7.4): strictly competitive
uric acid production in presence of inhibitor ([1]; 2 μM xanthine, 0.1 M KPB pH 7.4, 0 to 400 μM oxypurinol): uric acid production was evident even with 400 μM oxypurinol
50% inhibition time of uric acid production [1, 5]: 9.0 min
stop time of uric acid production [1, 5]: 58.3 min
50% inhibition time of uric acid production [1, 6]: 14.9 min
stop time of uric acid production [1, 6]: 89.0 min
50% inhibition time of uric acid production ([1]; xanthine 2 μM, inhibitor 50 μM, XO): 49.5 min
ratio of 50% inhibition time, oxypurinol (min)/allopurinol (min) ([1]; xanthine 5 μM, inhibitor 2 μM): 10.8
ratio of stop time, oxypurinol (min)/allopurinol (min) ([1]; xanthine 5 μM, inhibitor 2 μM): 25.9
50% inhibition time of uric acid production [1, 7]: 10.8 min
stop time of uric acid production [1, 7]: 77.7 min
50% inhibition time of uric acid production [1, 8]: 20.1 min
stop time of uric acid production [1, 8]: 119.4 min
50% inhibition time of uric acid production ([1]; xanthine 5 μM, inhibitor 50 μM, XO): 38.3 min
ratio of 50% inhibition time, oxypurinol (min)/allopurinol (min) ([1]; xanthine 10 μM, inhibitor 2 μM): 10.9
ratio of stop time, oxypurinol (min)/allopurinol (min) ([1]; xanthine 10 μM, inhibitor 2 μM): 14.7
50% inhibition time of uric acid production [1, 9]: 15.3 min
stop time of uric acid production [1, 9]: 101.4 min
50% inhibition time of uric acid production ([1]; xanthine 10 μM, inhibitor 10 μM, XO): 20.8 min
50% inhibition time of uric acid production ([1]; xanthine 10 μM, inhibitor 50 μM, XO): 19.7 min
ratio of 50% inhibition time, oxypurinol (min)/allopurinol (min) ([1]; xanthine 50 μM, inhibitor 2 μM): 8.6
50% inhibition time of uric acid production [1, 10]: 32.7 min
ratio of 50% inhibition time, oxypurinol (min)/allopurinol (min) ([1]; xanthine 50 μM, inhibitor 10 μM): 10.8
50% inhibition time of uric acid production [1, 11]: 13.0 min
ratio of 50% inhibition time, oxypurinol (min)/allopurinol (min) ([1]; xanthine 50 μM, inhibitor 50 μM): 34.0
50% inhibition time of uric acid production [1, 12]: 6.8 min
Types of inhibition ([2]; substrate hypoxanthine): Competitive
Ki ([2]; substrate hypoxanthine, electron acceptor PMS, mean ± S.E.): 1.29 ± 0.14 µM
Types of inhibition ([2]; substrate xanthine): Competitive
Ki ([2]; substrate xanthine, electron acceptor PMS, mean ± S.E.): 1.65 ± 0.24 µM
oxypurinol concentrations necessary to achieve target serum uric acid levels ([3]; ref Stamp et al. 5, 16): > 100 µmol/L
Types of inhibition ([4]; substrate hypoxanthine, 340 nm): Competitive
Ki ([4]; substrate hypoxanthine, electron acceptor NAD+, 340 nm, mean ± S.E.): 3.15 ± 0.22 µM
Types of inhibition ([4]; substrate xanthine, 295 nm): Competitive
Ki ([4]; substrate xanthine, electron acceptor NAD+, 295 nm, mean ± S.E.): 4.6 ± 0.87 µM

Oc1ncnc2[nH]ncc12 [Allopurinol]
effect on uric acid production ([1]; 10 μM or 50 μM inhibitor, 50 μM xanthine, XO): stops uric acid production immediately
50% inhibition time of uric acid production [1, 7]: 1.0 min
stop time of uric acid production [1, 7]: 3.0 min
50% inhibition time of uric acid production [1, 9]: 1.4 min
stop time of uric acid production [1, 9]: 6.9 min
50% inhibition time of uric acid production [1, 10]: 3.8 min
stop time of uric acid production [1, 10]: 14.9 min
50% inhibition time of uric acid production [1, 11]: 1.2 min
stop time of uric acid production [1, 11]: 4.5 min
50% inhibition time of uric acid production [1, 12]: 0.2 min
stop time of uric acid production [1, 12]: 0.7 min
Km [2, 13]: 3.59 ± 0.45 µM
kcat [2, 13]: 26.17 ± 1.96 s⁻¹
serum oxypurinol concentrations ([3]; patients receiving 300 mg allopurinol daily for more than 2 weeks): greater than 100 μM
Km [4, 14]: 4.23 ± 0.52 µM
kcat [4, 14]: 1.83 ± 0.92 s⁻¹
